Several values for one entry are separate records, joined by “and”; a condition that tells them apart may be missing. Equal entries are not always repeated. Inconclusive results and toxic doses are left out. The calls were made as follows: active = survival T/C of 150% or more; inactive = T/C below 125% in these data.
Tested on: CD2F1 mice, L1210 leukemia ip, survival T/C
Test: NCI In Vivo Anticancer Drug Screen. Data for tumor model L1210 Leukemia (intraperitoneal) in CD2F1 (CDF1) mice
Conditions: higher = longer survival
Method in brief: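 Read-out first: treated-group measurement over vehicle-control measurement, expressed as a ratio. Animals bore a transplanted tumor line and were dosed with compound or vehicle.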

[1] = endpoint: mean survival time, dose: 100.0 mg/kg/injection, schedule: Q04DX003 (ip), vehicle: saline
[2] = endpoint: mean survival time, dose: 200.0 mg/kg/injection, schedule: Q04DX003 (ip), vehicle: saline
[3] = endpoint: mean survival time, dose: 100.0 mg/kg/injection, schedule: Q04DX003 (ip), vehicle: saline with Tween-80
[4] = endpoint: mean survival time, dose: 200.0 mg/kg/injection, schedule: Q04DX003 (ip), vehicle: saline with Tween-80
[5] = endpoint: mean survival time, dose: 100.0 mg/kg/injection, schedule: Q01DX009 (ip), vehicle: saline with Tween-80
[6] = endpoint: mean survival time, dose: 200.0 mg/kg/injection, schedule: Q01DX009 (ip), vehicle: saline with Tween-80
[7] = endpoint: mean survival time, dose: 400.0 mg/kg/injection, schedule: Q01DX009 (ip), vehicle: saline with Tween-80
[8] = endpoint: mean survival time, dose: 400.0 mg/kg/injection, schedule: Q04DX003 (ip), vehicle: saline with Tween-80
[9] = endpoint: mean survival time, dose: 50.0 mg/kg/injection, schedule: Q01DX009 (ip), vehicle: Klucel (hydroxypropylcellulose) (HPC)
[10] = endpoint: mean survival time, dose: 100.0 mg/kg/injection, schedule: Q01DX009 (ip), vehicle: Klucel (hydroxypropylcellulose) (HPC)
[11] = endpoint: mean survival time, dose: 200.0 mg/kg/injection, schedule: Q01DX009 (ip), vehicle: Klucel (hydroxypropylcellulose) (HPC)

Measured: T/C

C[N+](C)(C)CCP(=O)([O-])O
inactive: [1] 98 % of control | [2] 101 % of control | endpoint: mean survival time, dose: 400.0 mg/kg/injection, schedule: Q04DX003 (ip), vehicle: saline 101 % of control

O=[N+]([O-])c1ccc2c(c1)C(=Nc1ccc3ccccc3c1)c1ccccc1-2
inactive: [3] 98 % of control | [4] 86 % of control

CNC(=O)Nc1nncs1
inactive: [5] 97 % of control | [6] 104 % of control | [7] 92 % of control

CCOC(=O)CN1C(=O)C(Cl)=C(Cl)C1=O
inactive: endpoint: mean survival time, dose: 12.5 mg/kg/injection, schedule: Q04DX003 (ip), vehicle: saline with Tween-80 98 % of control

CCC(=O)c1ccccc1NC(C)=O
inactive: [4] 95 % of control | [8] 97 % of control

N#Cc1cnn2ccn(C3OC(COC(=O)c4ccccc4)C(OC(=O)c4ccccc4)C3OC(=O)c3ccccc3)c12 (stereo not drawn)
inactive: endpoint: median survival time, dose: 50.0 mg/kg/injection, schedule: Q01DX005 (ip), vehicle: saline with Tween-80 90 % of control | endpoint: median survival time, dose: 100.0 mg/kg/injection, schedule: Q01DX005 (ip), vehicle: saline with Tween-80 98 % of control | endpoint: median survival time, dose: 200.0 mg/kg/injection, schedule: Q01DX005 (ip), vehicle: saline with Tween-80 94 % of control

CCc1nc(N)nc(N)c1-c1ccc(Cl)c([N+](=O)[O-])c1
inactive: endpoint: mean survival time, dose: 3.12 mg/kg/injection, schedule: Q01DX009 (ip), vehicle: saline with Tween-80 101 % of control | endpoint: mean survival time, dose: 6.25 mg/kg/injection, schedule: Q01DX009 (ip), vehicle: saline with Tween-80 106 % of control

COc1ccc2c(c1)OC(C)(C)C(c1ccccc1)=C2c1ccc(OCCN2CCCC2)cc1
inactive: endpoint: mean survival time, dose: 75.0 mg/kg/injection, schedule: Q01DX001 (ip), vehicle: saline 98 % of control

OCCN(c1ccccc1)C1CCCCC1
inactive: [9] 113 % of control | [10] 102 % of control | [11] 106 % of control

CC1CCC(C(C)C)C(NCCO)C1 (stereo not drawn)
inactive: endpoint: mean survival time, dose: 18.8 mg/kg/injection, schedule: Q01DX009 (ip), vehicle: saline 96 % of control | endpoint: mean survival time, dose: 37.5 mg/kg/injection, schedule: Q01DX009 (ip), vehicle: saline 97 % of control | endpoint: mean survival time, dose: 75.0 mg/kg/injection, schedule: Q01DX009 (ip), vehicle: saline 100 % of control

CC(=O)OC1CCC2(C)C(CCC3C2CCC2(C)C(c4cccc(=O)o4)CCC32)C1 (stereo not drawn)
inactive: endpoint: mean survival time, dose: 100.0 mg/kg/injection, schedule: Q01DX001 (ip), vehicle: saline 101 % of control | endpoint: mean survival time, dose: 200.0 mg/kg/injection, schedule: Q01DX001 (ip), vehicle: saline 97 % of control | endpoint: mean survival time, dose: 400.0 mg/kg/injection, schedule: Q01DX001 (ip), vehicle: saline 95 % of control

COCCC1(CN2c3ccccc3Sc3ccccc32)CCN(C)C1 (stereo not drawn)
inactive: [1] 94 % of control | [2] 96 % of control

CCc1cc(C(C)(C)C)c(O)c(C(C)(C)C)c1
inactive: endpoint: mean survival time, dose: 25.0 mg/kg/injection, schedule: Q01DX009 (ip), vehicle: Klucel (hydroxypropylcellulose) (HPC) 102 % of control | [9] 102 % of control | [10] 98 % of control

Cc1cc(C)cc(OCCOCCOc2cc(C)cc(C)c2)c1
inactive: [3] 94 % of control | [4] 97 % of control | [8] 100 % of control

CC(=O)Nc1cc(C/C(N)=N/O)cc(NC(C)=O)c1
inactive: [3] 100 % of control | [4] 103 % of control | [8] 111 % of control

COC1C(C)OC(OC2CC(C)(O)C(C(=O)O)c3cc4c(c(O)c32)C(=O)c2c(O)cc3c(c2C4=O)OC2OC3(C)C(O)C(N(C)C)C2O)C(OC)C1(C)OC (stereo not drawn)
inactive: endpoint: mean survival time, dose: 5.0 mg/kg/injection, schedule: Q01DX009 (ip), vehicle: other 113 % of control | endpoint: mean survival time, dose: 10.0 mg/kg/injection, schedule: Q01DX009 (ip), vehicle: other 107 % of control | endpoint: mean survival time, dose: 10.0 mg/kg/injection, schedule: Q04DX003 (ip), vehicle: other 113 % of control | endpoint: mean survival time, dose: 20.0 mg/kg/injection, schedule: Q01DX009 (ip), vehicle: other 118 % of control | endpoint: mean survival time, dose: 20.0 mg/kg/injection, schedule: Q04DX003 (ip), vehicle: other 113 % of control | endpoint: mean survival time, dose: 40.0 mg/kg/injection, schedule: Q04DX003 (ip), vehicle: other 117 % of control | endpoint: mean survival time, dose: 80.0 mg/kg/injection, schedule: Q04DX003 (ip), vehicle: other 115 % of control

CC(Cl)CN(CC(C)Cl)c1ccc(N=Nc2ccccc2)cc1 (stereo not drawn)
inactive: [9] 100 % of control | [10] 106 % of control | [11] 90 % of control

CCCCCCCCCCCCCCCCCOc1c(I)cc(I)cc1I
inactive: endpoint: mean survival time, dose: 100.0 mg/kg/injection, schedule: Q01DX001 (ip), vehicle: saline with Tween-80 86 % of control | endpoint: mean survival time, dose: 200.0 mg/kg/injection, schedule: Q01DX001 (ip), vehicle: saline with Tween-80 94 % of control | endpoint: mean survival time, dose: 400.0 mg/kg/injection, schedule: Q01DX001 (ip), vehicle: saline with Tween-80 91 % of control

O=C(O/N=C(\CN1CCCC1)c1ccc(Cl)cc1)c1ccccc1
inactive: endpoint: mean survival time, dose: 100.0 mg/kg/injection, schedule: Q01DX001 (ip), vehicle: Klucel (hydroxypropylcellulose) (HPC) 95 % of control | endpoint: mean survival time, dose: 200.0 mg/kg/injection, schedule: Q01DX001 (ip), vehicle: Klucel (hydroxypropylcellulose) (HPC) 95 % of control | endpoint: mean survival time, dose: 400.0 mg/kg/injection, schedule: Q01DX001 (ip), vehicle: Klucel (hydroxypropylcellulose) (HPC) 93 % of control

CN(C)c1ccc(/C=C/c2nc3ccccc3o2)cc1
inactive: endpoint: mean survival time, dose: 100.0 mg/kg/injection, schedule: Q04DX003 (ip), vehicle: Klucel (hydroxypropylcellulose) (HPC) 96 % of control | endpoint: mean survival time, dose: 200.0 mg/kg/injection, schedule: Q04DX003 (ip), vehicle: Klucel (hydroxypropylcellulose) (HPC) 100 % of control | endpoint: mean survival time, dose: 400.0 mg/kg/injection, schedule: Q04DX003 (ip), vehicle: Klucel (hydroxypropylcellulose) (HPC) 102 % of control

Clc1ccc(NC(Nc2ccc(Cl)cc2Cl)C(Cl)(Cl)Cl)c(Cl)c1
inactive: [5] 101 % of control | [6] 106 % of control | [7] 95 % of control

Cn1c(=O)cc(C=Nc2ccc(S(N)(=O)=O)cc2)c2ccccc21
inactive: [5] 90 % of control | [6] 89 % of control | [7] 89 % of control

CC(=O)Oc1ccccc1C(=O)O
inactive: endpoint: mean survival time, dose: 31.3 mg/kg/injection, schedule: Q01DX009 (ip), vehicle: saline sonified 106 % of control | endpoint: mean survival time, dose: 31.3 mg/kg/injection, schedule: Q01DX009 (ip), vehicle: saline with Tween-80 100 % of control | endpoint: mean survival time, dose: 50.0 mg/kg/injection, schedule: Q03HX024 (ip), vehicle: saline 97 % of control | endpoint: mean survival time, dose: 62.5 mg/kg/injection, schedule: Q01DX009 (ip), vehicle: saline sonified 101 % of control | endpoint: mean survival time, dose: 62.5 mg/kg/injection, schedule: Q01DX009 (ip), vehicle: saline with Tween-80 98 % of control | endpoint: mean survival time, dose: 100.0 mg/kg/injection, schedule: Q03HX024 (ip), vehicle: saline 97 % of control | endpoint: mean survival time, dose: 125.0 mg/kg/injection, schedule: Q01DX009 (ip), vehicle: saline sonified 98 % of control | endpoint: mean survival time, dose: 125.0 mg/kg/injection, schedule: Q01DX009 (ip), vehicle: saline with Tween-80 96 % of control and 100 % of control | endpoint: mean survival time, dose: 250.0 mg/kg/injection, schedule: Q01DX009 (ip), vehicle: saline with Tween-80 96 % of control | endpoint: mean survival time, dose: 500.0 mg/kg/injection, schedule: Q01DX001 (ip), vehicle: saline with Tween-80 104 % of control | endpoint: mean survival time, dose: 1000.0 mg/kg/injection, schedule: Q01DX001 (ip), vehicle: saline with Tween-80 104 % of control
